Test results published in patent US12030877B2, “Prostaglandin E synthase inhibitors and methods for utilizing the same” (University of Kentucky Research Foundation, priority 2016, dated 2024).

The compounds below were run against T1, mPGES-1 (Homo sapiens, UniProt O14684) (assay: mPGES-1 enzyme activity assay (PGE2 enzyme immunoassay), human enzyme). Conditions: IC50 against mPGES-1, Human enzyme, recombinant microsomal enzyme; means ± SD, triplicate.
T1 sequence (O14684 1-152): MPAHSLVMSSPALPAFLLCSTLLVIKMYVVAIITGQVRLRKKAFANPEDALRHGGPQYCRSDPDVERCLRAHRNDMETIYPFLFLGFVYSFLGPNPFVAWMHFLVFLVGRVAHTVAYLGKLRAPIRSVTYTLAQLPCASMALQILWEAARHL
Format: biochemical
Parameters: made in house; host or cells: FreeStyle 293-F cells, crude microsomal preparation
Procedure: Studies were conducted to characterize the inhibitory activity against recombinant mPGES-1 of the compounds synthesized in accordance with Examples 1-4, and disclosed herein.
Briefly, FreeStyle 293-F cells were cultured following manufacturer's manual in FreeStyle 293 expression medium on orbit rotate shaker in 8% CO2 incubator at 37° C. Cells were transfected with 1.5 μg/mL of mPGES-1/pcDNA3 construct using FreeStyle Max reagent at a cell density of 1×10^6 for 2 days. Transfected cells were collected, washed, and sonicated in TSES buffer (15 mM Tris-HCl, pH 8.0 plus 0.25 M sucrose, 0.1 mM EDTA and 1 mM DTT) on ice. The broken cells were first centrifuged at 12,500×g for 10 min. The supernatant was further centrifuged at 105,000×g for 1 hr at 4° C. The pellet was washed and homogenized in PBS buffer. The crude microsomal mPGES-1 preparation was aliquoted and stored at −80° C. The crude protein concentration was 8 mg/mL.
The enzyme activity assays were performed on ice in 1.5 ml microfuge tubes by using the expressed mPGES-1. The reaction mixture contained: 0.2 M Na2HPO4/NaH2PO4, pH 7.2, 10 μL; 0.1 M GSH, 2.5 μL; diluted microsomal enzyme (80 μg/mL), 1 μL; PGH2 (0.31 mM in DMF), 5 μL; 1 μL inhibitor; and H2O in a final reaction volume of 100 μL. PGH2 was stored in dry ice and used to initiate the reaction.
Compounds were incubated with the enzyme for 15 min at room temperature before the addition of cold PGH2 (1 μM final) to initiate the enzyme reaction. After 30 s, 10 μL of SnCl2 (40 mg/mL) in ethanol was added to stop the reaction. The nonenzymatic conversion of PGH2 to PGE2 was performed in the same buffer devoid of enzyme. The reaction mixture was placed on ice until PGE2 production was determined by the PGE2 enzyme immunoassay as described earlier. IC50 values of the inhibitors were calculated by using the GraphPad Prism 4.0 program. The results are set forth in the tables provided in Examples 7-10.

Structure (SMILES)	IC50 [nM]
O=C1NC(=O)C(=Cc2ccc(OCCCCC3CCCCC3)c(Br)c2)C(=O)N1 [Compound I-03]	45 ± 8
O=C1NC(=O)C(=Cc2ccc(OCCCCC3CCCCC3)c([N+](=O)[O-])c2)C(=O)N1 [Compound I-08]	67 ± 20
O=C1NC(=O)C(=Cc2ccc(OCCCCC3CCCCC3)c(Br)c2)C(=O)N1 [Compound I-22]	20 ± 4
O=C1NC(=O)C(=Cc2ccc(OCCCCC3CCCCC3)c([N+](=O)[O-])c2)C(=O)N1 [Compound I-23]	53 ± 14
O=C1NC(=O)C(=Cc2ccc(OCCCC3CCCCC3)c(Cl)c2)C(=O)N1 [Compound I-24]	110 ± 21
O=C1NC(=O)C(=Cc2ccc(OCCCC3CCCCC3)c(Br)c2)C(=O)N1 [Compound I-25]	104 ± 25
O=C1NC(=O)C(=Cc2ccc(OCCCC3CCCCC3)c(Cl)c2)C(=O)N1 [Compound I-30]	78 ± 13
O=C1NC(=O)C(=Cc2ccc(OCCCC3CCCCC3)c(Br)c2)C(=O)N1 [Compound I-31]	112 ± 13

Same assay, conditions: compound at a concentration of 10 μM; read-out: % inhibition of the compound against mPGES-1, Human enzyme

Structure (SMILES)	inhibition at 10 µM [%]
CCCCOc1ccc(-c2nn(-c3ccccc3)cc2C=C2C(=O)N(C)C(=O)N(C)C2=O)cc1 [VI-19]	30
CCCCOc1ccc(-c2nn(-c3ccc(Cl)cc3)cc2C=C2C(=O)N(C)C(=O)N(C)C2=O)cc1 [VI-20]	29
CCCCCCCCOc1ccc(-c2nn(-c3ccccc3)cc2C=C2C(=O)N(C)C(=O)N(C)C2=O)cc1 [VI-21]	16
CCCCCCCCOc1ccc(-c2nn(-c3ccc(Cl)cc3)cc2C=C2C(=O)N(C)C(=O)N(C)C2=O)cc1 [VI-22]	6.8
CCCCCCCCCCOc1ccc(-c2nn(-c3ccccc3)cc2C=C2C(=O)N(C)C(=O)N(C)C2=O)cc1 [VI-23]	0
CCCCCCCCCCOc1ccc(-c2nn(-c3ccc(Cl)cc3)cc2C=C2C(=O)N(C)C(=O)N(C)C2=O)cc1 [VI-24]	0
CCOC(=O)/C(C#N)=C\c1cn(-c2ccc(Cl)cc2)nc1-c1ccc(OCC)cc1 [VII-03]	24
CCCCCCOc1ccc(-c2nn(-c3ccc(Cl)cc3)cc2/C=C(/C#N)C(=O)OCC)cc1 [VII-04]	37
CCCCOc1ccc(-c2nn(-c3ccccc3)cc2C=C(C#N)C#N)cc1 [VII-22]	54
CCCCOc1ccc(-c2nn(-c3ccc(Cl)cc3)cc2C=C(C#N)C#N)cc1 [VII-23]	77
CCCCCCCCOc1ccc(-c2nn(-c3ccccc3)cc2C=C(C#N)C#N)cc1 [VII-25]	55
CCCCCCCCOc1ccc(-c2nn(-c3ccc(Cl)cc3)cc2C=C(C#N)C#N)cc1 [VII-26]	52
CCCCCCCCCCOc1ccc(-c2nn(-c3ccccc3)cc2C=C(C#N)C#N)cc1 [VII-27]	49
CCCCCCCCCCOc1ccc(-c2nn(-c3ccc(Cl)cc3)cc2C=C(C#N)C#N)cc1 [VII-28]	47

Same assay, conditions: recombinant microsomal enzyme; means ± SD, triplicate; read-out: IC50 against mPGES-1, Human enzyme

Structure (SMILES)	IC50 [nM]
CCCCCCOc1ccc(/C=C(\C#N)C(=O)OCC)cc1[N+](=O)[O-] [Compound V-01]	8740 ± 1170
CCCCCCCOc1ccc(/C=C(\C#N)C(=O)OCC)cc1[N+](=O)[O-] [Compound V-02]	4820 ± 511
CCCCCCCCOc1ccc(/C=C(\C#N)C(=O)OCC)cc1[N+](=O)[O-] [Compound V-03]	4750 ± 489
CCCCCOc1ccc(/C=C(\C#N)C(=O)OCC)cc1 [Compound V-07]	6220 ± 502
CCCCCCOc1ccc(/C=C(\C#N)C(=O)OCC)cc1 [Compound V-08]	5240 ± 429
CCCCCCCOc1ccc(/C=C(\C#N)C(=O)OCC)cc1 [Compound V-09]	3520 ± 471
CCCCCCCOc1ccc(/C=C(\C#N)C(N)=O)cc1 [Compound V-11]	376 ± 31
CCCCCCOc1c(Br)cc(/C=C(\C#N)C(=O)OCC)cc1OC [Compound V-12]	998 ± 196
CCCCCCCOc1c(Br)cc(/C=C(\C#N)C(=O)OCC)cc1OC [Compound V-14]	1010 ± 262
CCCCCCCOc1c(Br)cc(/C=C(\C#N)C(N)=O)cc1OC [Compound V-16]	1300 ± 232
CCCCCCCCOc1c(Br)cc(/C=C(\C#N)C(=O)OCC)cc1OC [Compound V-17]	1870 ± 350
CCCCCCCCCCCCCCCCCCOc1c(Br)cc(/C=C(\C#N)C(=O)OCC)cc1OC [Compound V-19]	2270 ± 350
CCCCOc1ccc(/C=C(\C#N)C(=O)OCC)cc1OC [Compound V-21]	5630 ± 987
CCCCCCOc1ccc(/C=C(\C#N)C(=O)OCC)cc1OC [Compound V-23]	1450 ± 192
CCCCCCOc1ccc(C=C(C#N)C#N)cc1OC [Compound V-24]	294 ± 60
CCCCCCOc1ccc(/C=C(\C#N)C(=O)O)cc1OC [Compound V-25]	242 ± 30
CCCCCCCCCCOc1ccc(/C=C(\C#N)C(=O)OCC)cc1OC [Compound V-26]	905 ± 177
CCCCCCCCCCOc1ccc(/C=C(\C#N)C(N)=O)cc1OC [Compound V-28]	4370 ± 915
CCCCCCCCCOc1ccc(/C=C(\C#N)C(=O)OCC)cc1OC [Compound V-29]	2880 ± 687

Structure (SMILES)	IC50 [nM]
CCCCCCCCCOc1ccc(/C=C(\C#N)C(N)=O)cc1OC [Compound V-30]	1100 ± 212
CCCCCCCCCOc1ccc(/C=C(\C#N)C(=O)O)cc1OC [Compound V-31]	356 ± 123
CCCCCCCOc1ccc(/C=C(\C#N)C(=O)OCC)cc1OC [Compound V-32]	4280 ± 1400
CCCCCCCOc1ccc(/C=C(\C#N)C(N)=O)cc1OC [Compound V-33]	2210 ± 450
CCCCCCCOc1ccc(/C=C(\C#N)C(=O)O)cc1OC [Compound V-34]	531 ± 116
CCCCOc1ccc(/C=C(\C#N)C(=O)O)cc1OC [Compound V-36]	541 ± 82
CCCCOc1ccc(/C=C(\C#N)C(N)=O)cc1OC [Compound V-37]	5410 ± 818
CCOC(=O)/C(C#N)=C/c1ccc(OCC2CCCCC2)c(OC)c1 [Compound V-38]	10800 ± 1040
COc1cc(C=C(C#N)C#N)ccc1OCC1CCCCC1 [Compound V-39]	1450 ± 152
COc1cc(/C=C(\C#N)C(N)=O)ccc1OCC1CCCCC1 [Compound V-40]	1460 ± 119
CCCCCOc1ccc(/C=C(\C#N)C(=O)OCC)cc1OC [Compound V-41]	4140 ± 858
CCCCCOc1ccc(C=C(C#N)C#N)cc1OC [Compound V-42]	439 ± 104
CCCCCOc1ccc(/C=C/[N+](=O)[O-])cc1OC [Compound V-43]	2770 ± 577
CCCCCOc1ccc(/C=C(\C#N)C(=O)O)cc1OC [Compound V-44]	456 ± 42
CCOc1ccc(-c2nn(-c3ccc(Cl)cc3)cc2/C=C2\SC(=O)NC2=O)cc1 [VII-05]	1590 ± 557
CCCCCCOc1ccc(-c2nn(-c3ccc(Cl)cc3)cc2/C=C2\SC(=O)NC2=O)cc1 [VII-06]	1390 ± 303
O=C1NC(=O)/C(=C/c2cn(-c3ccccc3)nc2-c2ccccc2)S1 [VII-07]	4930 ± 1160
CCOc1ccc(-c2nn(-c3ccc(Cl)cc3)cc2/C=C2\SC(=S)NC2=O)cc1 [VII-08]	1040 ± 293
CCCCCCOc1ccc(-c2nn(-c3ccc(Cl)cc3)cc2/C=C2\SC(=S)NC2=O)cc1 [VII-09]	1730 ± 666
